Source: PubChem BioAssay (NCI)
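Growth conditions: 96-well plates. Treatment: test compound, 48 hours, 5 concentrations. Analysis: linear interpolation between bracketing concentrations; unreached endpoints set to highest concentration. The concentration for 50% growth inhibition is given as GI50. Definition used: TGI = concentration required for complete inhibition of growth.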

Assays:
Experiment in all cases: NCI anticancer screen, dose series, 48 h
[1] = tested on: A549 NSCLC
[2] = tested on: SNB-19 CNS
[3] = tested on: 786-0 renal
[4] = tested on: SK-MEL-2 melanoma
[5] = tested on: HCC-2998 colon
[6] = tested on: UO-31 renal
[7] = tested on: LOX IMVI melanoma
[8] = tested on: A498 renal
[9] = tested on: SK-MEL-5 melanoma
[10] = tested on: RPMI-8226 leukemia
[11] = tested on: SF-295 CNS
[12] = tested on: HOP-62 NSCLC
[13] = tested on: K-562 leukemia
[14] = tested on: TK-10 renal
[15] = tested on: NCI-H522 lung
[16] = tested on: HCT-15 colon
[17] = tested on: SK-MEL-28 melanoma
[18] = tested on: NCI-H226 lung
[19] = tested on: HL-60(TB) leukemia
[20] = tested on: SN12C renal
[21] = tested on: UACC-257 melanoma
[22] = tested on: SR leukemia
[23] = tested on: M14 melanoma
[24] = tested on: T-47D breast
[25] = tested on: CAKI-1 renal
[26] = tested on: CCRF-CEM leukemia
[27] = tested on: DU-145 prostate
[28] = tested on: SF-268 CNS
[29] = tested on: SW-620 colon

FC(F)(F)c1cccc(-c2nn3ncccc3c2-c2ccnc(Nc3ccc4c(c3)OCCO4)n2)c1
GI50 [1]: 12.8 µM
TGI [1]: > 25 µM
GI50 [2]: > 25 µM
TGI [2]: > 25 µM
GI50 [3]: 8.35 µM
TGI [3]: > 25 µM
GI50 [4]: > 25 µM
TGI [4]: > 25 µM
GI50 [5]: 13 µM
TGI [5]: > 25 µM
GI50 [6]: 3.68 µM
TGI [6]: > 25 µM
GI50 [7]: 10 µM
TGI [7]: > 25 µM
GI50 [8]: 9.59 µM
TGI [8]: > 25 µM
GI50 [9]: 7.87 µM
TGI [9]: > 25 µM
GI50 [10]: 7.88 µM
TGI [10]: > 25 µM
GI50 [11]: 18.2 µM
TGI [11]: > 25 µM
GI50 [12]: > 25 µM
TGI [12]: > 25 µM
GI50 [13]: 8.75 µM
TGI [13]: > 25 µM
GI50 [14]: 8.49 µM
TGI [14]: > 25 µM
GI50 [15]: 14 µM
TGI [15]: > 25 µM
GI50 [16]: 6.59 µM
TGI [16]: > 25 µM
GI50 [17]: > 25 µM
TGI [17]: > 25 µM
GI50 [18]: 14.2 µM
TGI [18]: > 25 µM
GI50 [19]: 11.9 µM
TGI [19]: > 25 µM
GI50 [20]: 11.7 µM
TGI [20]: > 25 µM
GI50 [21]: 9.5 µM
TGI [21]: > 25 µM
GI50 [22]: 10.4 µM
TGI [22]: > 25 µM
GI50 [23]: 17.6 µM
TGI [23]: > 25 µM
GI50 [24]: 7.37 µM
TGI [24]: > 25 µM
GI50 [25]: 7.66 µM
TGI [25]: > 25 µM
GI50 [26]: 0.511 µM
TGI [26]: > 25 µM
GI50 [27]: 19.2 µM
TGI [27]: > 25 µM
GI50 [28]: 19.4 µM
TGI [28]: > 25 µM
GI50 [29]: 9.68 µM
TGI [29]: > 25 µM
